Experimental data as given in patent US9555021B2, “Pharmaceutical compositions comprising (3-(1-(1H-imidazol-4-yl)ethyl)-2-methylphenyl)methanol” (Allergan, Inc., priority 2009, dated 2017).

Columns and labels:
[1] = target: T1, alpha-2A adrenergic receptor (Homo sapiens, UniProt P08913); assay: FLIPR assay (intracellular calcium), alpha-2A adrenergic receptor; type: cell-based; settings: for alpha-2A activity in words (agonist/antagonist): Table 2; for α-2A relative efficacy as compared to norepinephrine: agonism; for EC50: first line of cell, compounds tested at 0.64 nM-10,000 nM, read-out: α-2A agonism EC50
T1 construct: expressed in transfected cells
T1 sequence (P08913 1-465): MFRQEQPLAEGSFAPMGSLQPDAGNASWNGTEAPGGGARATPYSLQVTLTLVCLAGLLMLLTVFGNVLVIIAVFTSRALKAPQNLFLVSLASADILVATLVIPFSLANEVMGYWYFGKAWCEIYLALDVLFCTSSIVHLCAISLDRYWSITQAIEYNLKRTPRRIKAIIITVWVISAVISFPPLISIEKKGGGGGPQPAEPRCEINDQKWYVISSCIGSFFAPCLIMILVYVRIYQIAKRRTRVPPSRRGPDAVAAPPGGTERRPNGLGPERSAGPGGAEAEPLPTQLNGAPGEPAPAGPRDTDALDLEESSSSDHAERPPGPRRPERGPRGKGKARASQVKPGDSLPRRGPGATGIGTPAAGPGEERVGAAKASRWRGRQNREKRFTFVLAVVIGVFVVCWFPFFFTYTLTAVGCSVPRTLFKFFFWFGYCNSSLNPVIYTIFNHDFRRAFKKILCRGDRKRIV
Protocol: (§1) Compounds of the invention were evaluated in a FLIPR assay in order to determine their specificity for five alpha adrenergic receptors. The FLIPR assay measures release of intracellular calcium in response to receptor activation. Cells are preloaded with a calcium sensitive dye that fluoresces in response to calcium. Receptors that activate the G protein, Gq, elicit the response. Alpha adrenergic receptors, which normally couple to Gi, trigger the increase in intracellular calcium when coexpressed with a hybrid Gq protein containing a Gi receptor recognition domain, designated Gq/i5 (Conklin et al., Nature 363:274-6 (1993)) or with the promiscuous G protein Ga16.
(§2) The assay was performed essentially as follows. HEK 293 cells stably expressing an alpha-2 receptor and either the chimeric G-protein Gqi5 or the promiscuous G protein G16 were plated in poly-D-lysine coated 384-well plates at 20,000-25,000 cells per well and grown overnight in DMEM supplemented with 10% FBS. Cells were washed twice with HBSS/HEPES Buffer (1× Hanks Buffered Salt Solution, 20 mM HEPES, pH 7.4) prior to the addition of Fluo-4-AM (4 μM Fluo-4-AM, 0.04% pluronic acid in HBSS/HEPES Buffer), a calcium-sensitive dye. Cells were loaded with dye for 60 minutes at 37° C., then washed 4 times with HBSS/HEPES Buffer. The reaction was initiated by the addition of the appropriate dilutions of compounds (final concentration between 0.64 nM-10,000 nM) and the transient calcium signal captured. The peak height of the calcium curve was determined and utilized for calculation of EC50 and efficacy using ActivityBase.

mice [2] = assay: Locomotor activity (sedation); type: in vivo; settings: 30 minutes after dosing
[3] = target: T2, alpha-1A adrenergic receptor (Homo sapiens, UniProt P35348); assay: FLIPR assay (intracellular calcium), alpha-1A adrenergic receptor; type: cell-based; settings: for alpha-1A activity in words (agonist/antagonist): Table 2; for α-1A relative efficacy as compared to norepinephrine: agonism; for EC50: first line of cell, HEK 293 cells, unit inferred, compounds tested at 0.64 nM-10,000 nM, read-out: α-1A agonism EC50
T2 sequence (P35348 1-466): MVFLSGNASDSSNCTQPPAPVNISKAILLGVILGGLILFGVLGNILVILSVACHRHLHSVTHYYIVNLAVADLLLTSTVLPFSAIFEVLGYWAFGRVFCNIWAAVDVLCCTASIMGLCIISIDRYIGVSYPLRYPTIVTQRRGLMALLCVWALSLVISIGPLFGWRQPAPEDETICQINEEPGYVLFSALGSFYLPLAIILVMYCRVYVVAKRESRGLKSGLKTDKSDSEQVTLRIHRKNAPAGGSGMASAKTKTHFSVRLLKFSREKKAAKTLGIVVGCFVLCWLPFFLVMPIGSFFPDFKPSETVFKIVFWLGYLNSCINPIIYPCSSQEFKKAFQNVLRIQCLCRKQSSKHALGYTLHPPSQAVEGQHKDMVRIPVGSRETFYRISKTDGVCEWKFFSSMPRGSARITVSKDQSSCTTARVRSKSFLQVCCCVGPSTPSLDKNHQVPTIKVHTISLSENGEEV
Protocol: as §1, §2

[4] = FIG. 3 / FIG. 4
Protocol: The tactile hypersensitivity of 5-6 mice (weighing approx. 25 g) per group was scored every five minutes between 15 and 50 minutes following intraperitoneal dosing with 300 ng/kg (in a 1 mL/kg volume) sulprostone (Cayman Chemical Company, Ann Arbor, Mich.). Compound I or vehicle was administered intraperitoneally 15 minutes prior to sulprostone.
(§3) Tactile hypersensitivity was quantified by scoring the response of mice to light stroking of their flanks with a small paintbrush, which is not normally painful.
The computer analyses this movement and records total activity. Locomotor activity relative to vehicle-treated animals was expressed as a percentage; percentage sedation was calculated as 100% minus the percent locomotor activity. Statistical calculations of significance for in vivo studies were done using a two-tailed Student's t-test.

[5] = target: T3, alpha-2B adrenergic receptor (Homo sapiens, UniProt P18089); assay: FLIPR assay (intracellular calcium), alpha-2B adrenergic receptor; type: cell-based; settings: for alpha-2B activity in words (agonist/antagonist): Table 2; for α-2B relative efficacy as compared to norepinephrine: agonism, value in parenthesis; for EC50: first line of cell, unit inferred, compounds tested at 0.64 nM-10,000 nM, read-out: α-2B agonism EC50
T3 construct: expressed in transfected cells
T3 sequence (P18089 1-450): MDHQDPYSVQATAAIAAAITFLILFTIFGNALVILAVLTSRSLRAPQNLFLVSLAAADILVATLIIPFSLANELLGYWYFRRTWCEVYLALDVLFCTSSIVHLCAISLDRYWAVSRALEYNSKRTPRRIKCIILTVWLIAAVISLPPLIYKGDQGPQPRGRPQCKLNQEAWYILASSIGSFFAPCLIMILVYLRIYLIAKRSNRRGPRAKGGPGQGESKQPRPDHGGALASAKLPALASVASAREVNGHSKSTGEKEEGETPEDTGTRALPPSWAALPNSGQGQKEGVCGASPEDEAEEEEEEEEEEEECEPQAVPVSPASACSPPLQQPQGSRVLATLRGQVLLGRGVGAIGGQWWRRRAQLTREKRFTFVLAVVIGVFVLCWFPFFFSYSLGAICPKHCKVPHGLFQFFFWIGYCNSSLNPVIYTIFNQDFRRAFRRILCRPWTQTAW
Protocol: as §1, §2

mice [6] = assay: Sulprostone-induced tactile hypersensitivity; type: in vivo; settings: 0.3 mg/kg intraperitoneally 15 minutes prior to sulprostone
Protocol: The tactile hypersensitivity of 5-6 mice (weighing approx. 25 g) per group was scored every five minutes between 15 and 50 minutes following intraperitoneal dosing with 300 ng/kg (in a 1 mL/kg volume) sulprostone (Cayman Chemical Company, Ann Arbor, Mich.).
as §3

[7] = target: T4, alpha-2C adrenergic receptor (Homo sapiens, UniProt P18825); assay: FLIPR assay (intracellular calcium), alpha-2C adrenergic receptor; type: cell-based; settings: for alpha-2C activity in words (agonist/antagonist): Table 2; for α-2C relative efficacy as compared to norepinephrine: agonism, value in parenthesis; for EC50: first line of cell, unit inferred, compounds tested at 0.64 nM-10,000 nM, read-out: α-2C agonism EC50
T4 construct: expressed in transfected cells
T4 sequence (P18825 1-462): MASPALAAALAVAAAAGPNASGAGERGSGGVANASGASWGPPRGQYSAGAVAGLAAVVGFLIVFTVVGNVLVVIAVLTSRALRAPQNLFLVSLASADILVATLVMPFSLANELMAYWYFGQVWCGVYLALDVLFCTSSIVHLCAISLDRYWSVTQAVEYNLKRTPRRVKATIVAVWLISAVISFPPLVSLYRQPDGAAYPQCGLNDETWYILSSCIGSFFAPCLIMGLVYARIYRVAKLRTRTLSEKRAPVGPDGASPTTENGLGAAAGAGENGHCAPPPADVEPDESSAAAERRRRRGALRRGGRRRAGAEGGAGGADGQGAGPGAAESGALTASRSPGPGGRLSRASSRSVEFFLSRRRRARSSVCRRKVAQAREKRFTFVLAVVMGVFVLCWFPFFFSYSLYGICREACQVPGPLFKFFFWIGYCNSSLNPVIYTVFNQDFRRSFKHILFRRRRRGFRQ
Protocol: as §1, §2

[8] = target: T5, alpha-1B adrenergic receptor (Homo sapiens, UniProt P35368); assay: FLIPR assay (intracellular calcium), alpha-1B adrenergic receptor; type: cell-based; settings: unit inferred; for EC50: first line of cell, compounds tested at 0.64 nM-10,000 nM, read-out: α-1B agonism EC50; for IC50: second line of cell, read-out: α-1B antagonism IC50
T5 sequence (P35368 1-520): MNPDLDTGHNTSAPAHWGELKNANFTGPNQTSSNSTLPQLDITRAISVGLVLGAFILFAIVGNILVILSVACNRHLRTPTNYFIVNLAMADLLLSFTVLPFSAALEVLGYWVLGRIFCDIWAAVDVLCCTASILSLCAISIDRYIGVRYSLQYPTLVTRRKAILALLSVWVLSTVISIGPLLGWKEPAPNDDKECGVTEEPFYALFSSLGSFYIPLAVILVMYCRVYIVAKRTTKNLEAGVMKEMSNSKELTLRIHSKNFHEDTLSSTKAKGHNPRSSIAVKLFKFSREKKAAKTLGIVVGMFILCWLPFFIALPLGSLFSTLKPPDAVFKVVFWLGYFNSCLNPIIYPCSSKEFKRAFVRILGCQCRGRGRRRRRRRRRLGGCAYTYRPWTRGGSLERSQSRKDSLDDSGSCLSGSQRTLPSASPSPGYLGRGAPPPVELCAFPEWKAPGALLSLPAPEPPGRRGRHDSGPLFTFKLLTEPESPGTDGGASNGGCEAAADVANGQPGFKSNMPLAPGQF
Protocol: as §1, §2

mice [9] = settings: as described in Gil et al., Br J Pharmacol 153: 769-74 (2008); cited from earlier work
[10] = second line of cell, value in parenthesis

Compound	alpha-2A activity in words (agonist/antagonist) [1]	α-2A relative efficacy as compared to norepinephrine ([1]; value in parenthesis)	EC50 ([1]; unit inferred)	alpha-1A activity in words (agonist/antagonist) [3]	α-1A relative efficacy as compared to norepinephrine ([3]; value in parenthesis)	EC50 [3]	margin of safety for pain reduction vs. sedation [4]	alpha-2B activity in words (agonist/antagonist) [5]	α-2B relative efficacy as compared to norepinephrine [5]	EC50 [5]	alpha-2C activity in words (agonist/antagonist) [7]	α-2C relative efficacy as compared to norepinephrine [7]	EC50 [7]	EC50 [8]	IC50 [8]	activity in sulprostone-induced tactile hypersensitivity model (mice [9])	further results
Cc1c(CO)cccc1C(C)c1c[nH]cn1 (racemic) [Compound I, (3-(1-(1H-imidazol-4-yl)ethyl)-2-methylphenyl)methanol]	alpha-2 pan agonist	(.75)	53.7 nM	some alpha-1A agonist activity	(.69)	1630 nM	> 10 fold	alpha-2 pan agonist	(.94)	5.5 nM	alpha-2 pan agonist	(.98)	15.7 nM	> 10000 nM	> 8300 nM		sedation (locomotor activity) (mice [2]; 1 mg/kg intraperitoneal): minimally sedating; sedation (locomotor activity) (mice [2]; 3 mg/kg intraperitoneal): highly sedating; reduction in sulprostone induced hypersensitivity (mice [6]): back to control levels
Cc1c(CO)cccc1[C@@H](C)c1c[nH]cn1 [Compound II, (R)-(3-(1-(1H-imidazol-4-yl)ethyl)-2-methylphenyl)methanol]	antagonist		> 10000 nM			> 10000 nM		agonist	(.68)	52.8 nM	agonist	(.64)	171 nM	> 10000 nM	> 8300 nM		α-2A percent antagonism [1, 10]: (96%); IC50 ([1]; second line of cell, unit inferred, read-out: α-2A antagonism IC50): 144 nM; α-1A percent antagonism [3, 10]: (39%)
Cc1c(CO)cccc1[C@H](C)c1c[nH]cn1 [Compound III, (S)-(3-(1-(1H-imidazol-4-yl)ethyl)-2-methylphenyl)methanol]	alpha-2 pan agonist	(.9)	72 nM	some alpha-1A agonist activity	(.76)	445 nM		alpha-2 pan agonist	(.93)	3 nM	alpha-2 pan agonist	(1)	8 nM	> 8300 nM			
CN(C)CCC=C1c2ccccc2CCc2ccccc21 [amitriptyline]																active	
Cc1cccc([C@H](C)c2cnc[nH]2)c1C [dexmedetomidine]							no margin of safety										
NCC1(CC(=O)O)CCCCC1 [gabapentin]																active	
